The target in assay [1] is T1, NADH-cytochrome b5 reductase 3 (Rattus norvegicus) (UniProt P20070).
T1 sequence (whole entry): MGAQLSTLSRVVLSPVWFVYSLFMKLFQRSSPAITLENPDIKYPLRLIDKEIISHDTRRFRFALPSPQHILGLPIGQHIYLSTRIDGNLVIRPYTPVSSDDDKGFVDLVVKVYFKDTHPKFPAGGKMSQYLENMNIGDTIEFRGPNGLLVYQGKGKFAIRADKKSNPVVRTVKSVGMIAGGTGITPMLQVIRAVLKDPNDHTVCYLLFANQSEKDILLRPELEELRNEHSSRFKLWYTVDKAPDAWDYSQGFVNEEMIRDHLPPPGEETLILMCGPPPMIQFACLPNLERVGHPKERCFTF
As to the kind of experiment: Inhibition of Cyb5R3 in rat aortic VSMs assessed as reduction in decrease in sGC protein by Western blot analysis. The following applies: concentration not given here.

For assay [2], the system named is Mus musculus. The assay can be described thus: Induction of hypertension in C57B1/6 mouse assessed as increase in systolic pressure at 10 mg/kg/day dosed via osmotic mini pumps for 14 days. It counts as functional, organism-based.
For assay [3], the target named is T1, NADH-cytochrome b5 reductase 3 (Rattus norvegicus). The assay can be described thus: Inhibition of Cyb5R3 in rat aortic VSMs assessed as reduction in decrease in basal cGMP levels.
Assay [4] has the same target. The assay can be described thus: Inhibition of Cyb5R3 in DETA NONOate-stimulated rat aortic VSMs assessed as reduction in NO-induced cGMP production in presence of sGC activator Bay 58-2667.
Assay [5] relates to Mus musculus. As to the kind of experiment: Induction of hypertension in C57B1/6 mouse assessed as increase in mean arterial pressure at 10 mg/kg/day dosed via osmotic mini pumps for 14 days. Format: functional, organism-based.
Assay [6] relates to Mus musculus. As to the kind of experiment: Induction of hypertension in C57B1/6 mouse assessed as increase in diastolic pressure at 10 mg/kg/day dosed via osmotic mini pumps for 14 days. Format: functional, organism-based.
Assay [7] has as its target T1, NADH-cytochrome b5 reductase 3 (Rattus norvegicus). The assay can be described thus: Inhibition of Cyb5R3 in rat thoracodorsal arteries assessed as inhibition of DETA NONOate-induced response incubated for 24 hrs by pressure myography.
Assay [8] shares this target. The assay can be described thus: Inhibition of Cyb5R3 in rat thoracodorsal arteries assessed as inhibition of DETA NONOate-induced response incubated for 24 hrs in presence of sGC activator Bay 58-2667 by pressure myography.
Assay [9] has as its target T2, NADH-cytochrome b5 reductase (Homo sapiens) (UniProt P00387).
T2 sequence (whole entry): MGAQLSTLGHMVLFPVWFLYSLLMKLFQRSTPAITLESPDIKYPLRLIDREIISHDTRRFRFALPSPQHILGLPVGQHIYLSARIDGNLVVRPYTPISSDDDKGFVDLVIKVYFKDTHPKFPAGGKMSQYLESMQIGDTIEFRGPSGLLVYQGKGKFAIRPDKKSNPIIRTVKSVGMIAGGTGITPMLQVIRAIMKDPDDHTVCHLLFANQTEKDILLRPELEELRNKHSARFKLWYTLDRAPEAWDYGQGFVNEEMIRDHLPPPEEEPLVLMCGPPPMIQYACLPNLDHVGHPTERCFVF
The assay can be described thus: Inhibition of Cyb5R3 (unknown origin) expressed in HEK293 cells at 21.86 uM incubated for 24 hrs in presence of potassium ferricyanide and NADH by spectrophotometric assay. It counts as cell-based.

The species entered for the next assay is Homo sapiens. As to the kind of experiment: Reduction in systolic blood pressure in patient with acute decompensated heart failure during phase II clinical trial. Format: functional.

The source made the active and inactive calls. No cut-off for these calls is given here.

By inhibition is commonly meant how much of the control response was suppressed. As for `O=c1cc(CS[C@@H]2Nc3ccccc3O2)[nH]c(=S)[nH]1`, in [1], the inhibition was less than 75%. Also, the result in the assay on Mus musculus [2], with Mus musculus [5] and with Mus musculus [6] was Active. The inhibition result in assay [3] and in assay [7] was “Active” each time. For the same compound, the inhibition result in assay [4] and in assay [8] was “inactive” in each case.
As to `Oc1cc(CSc2ccccc2)nc(S)n1`, the inhibition in assay [9] is greater than 80%.
The compound `O=C(O)CCCCN(CCc1ccccc1OCc1ccc(CCc2ccccc2)cc1)Cc1ccc(C(=O)O)cc1` showed an Activity in the assay listed under Homo sapiens of 16.6 mmHg.

Values taken from ChEMBL document CHEMBL4482319, “Targeting cyb5r3” (2016).
